Laboratory results from patent US9150665B2, “Cellulose interpolymers and method of oxidation” (Eastman Chemical Company, priority 2003, dated 2015).
Converted amounts (≈) assume the structure as drawn.

Assay: physchem
Settings: for % Drug Solubilized: pH 3.9; for Sw/So: pH 4; for solubility: water
Protocol: The heterogeneous mixture was mixed well before carefully adjusting the pH with 0.1 N NaOH until the CA dissolved giving a clear solution. […] Four independent aqueous CA solutions were prepared by this process. […] The ethanol solution of each drug was then added slowly to the aqueous CA solutions previously prepared.
All of the samples were filtered thru 0.45 micron syringe filters before measurement. […] Solutions of each of the oxidized CA:drug mixtures were also prepared in 50/50 ethanol/Millipore water. […] All samples were immediately analyzed for the amount of drug in the solution using an UV-Vis Spectrophotometer.

For `CC(C)(C#N)c1cc(Cn2cncn2)cc(C(C)(C)C#N)c1` [anastrozole], the “Sw (amount of drug solubilized)” value was 1.2481 g/L/25 g of drug:CAOX, the “% Drug Solubilized” value was 90% and the Sw/So was 1.9. It also gave a solubility of 650 µg/mL (≈ 2220 µM).
In the case of `N#Cc1ccc(C(c2ccc(C#N)cc2)n2cncn2)cc1` [letrozole], the “Sw (amount of drug solubilized)” value is reported as 0.1461 g/L/25 g of drug:CAOX, the “% Drug Solubilized” value is reported as 7% and the Sw/So is reported as 1.2. For the same molecule, the solubility was 120 µg/mL (≈ 421 µM).
